Source: US20240279089A1, “METHOD FOR CONTROLLING THE GROWTH OF MICROORGANISMS” (RED BULL GMBH, priority 2021, published 2024)

Key:
microorganisms = experiment: Germ count in process water of pasteurization plants (Plate Count Agar); type: cell-based
Description: In order to examine the influence of chlorine dioxide on the microbial quality of process water, the process water of a first pasteurization plant was mixed with the aqueous solution according to the invention containing chlorine dioxide, and the process water of a second pasteurization plant was mixed with a biocide.
(§1) The aqueous solution according to the invention containing chlorine dioxide (prepared with the persulfate-chlorite process) was metered discontinuously into the process water of the first pasteurization plant in an amount so as to keep the redox potential of the process water in the range of 400 to 800 mV. When the redox potential in the process water fell below 400 to 450 mV, the aqueous solution according to the invention containing chlorine dioxide was metered in until a redox potential between 750 and 800 mV was reached.
In contrast, bronopol was added to the process water of the second pasteurization plant on a time-controlled basis (every three days) in such an amount that the concentration of bronopol in the process water was […]. […]
The germ count in 1 ml of sample was determined using “Plate Count Agar” (PCA), with the appropriate amount of process water being applied to PCA plates. One plate at a time was incubated at 37° C., and one plate at a time was incubated at 28° C. The evaluation of the germ count took place after 2 and 5 days, respectively.

[1] = Redox potential of treated process water; type: physicochemical
Description: as §1
Concurrently. the redox potential of the pasteurization plant in which chlorine dioxide was metered into the process water was measured at the time of sampling for determining the germ count.
In 5 measurements within the examination period. the redox potential of the process water treated with bronopol always amounted to more than 1000 mV.

[O][Cl+][O-] [chlorine dioxide]
Germ count/ml process water (microorganisms; 1 Mar. 2021): 940 mL⁻¹ | Germ count/ml process water (microorganisms; 2 Feb. 2021): 7040 mL⁻¹ | Germ count/ml process water (microorganisms; 4 Feb. 2021): 800 mL⁻¹ | Germ count/ml process water (microorganisms; 4 Jan. 2021): 280 mL⁻¹ | Germ count/ml process water (microorganisms; 5 Apr. 2021): 160 mL⁻¹ | Germ count/ml process water (microorganisms; 7 Jan. 2021): 3840 mL⁻¹ | Germ count/ml process water (microorganisms; 8 Apr. 2021): 2800 mL⁻¹ | Germ count/ml process water (microorganisms; 8 Feb. 2021): 80 mL⁻¹ | Germ count/ml process water (microorganisms; 11 Feb. 2021): 100 mL⁻¹ | Germ count/ml process water (microorganisms; 11 Jan. 2021): 3480 mL⁻¹ | Germ count/ml process water (microorganisms; 12 Apr. 2021): 6560 mL⁻¹ | Germ count/ml process water (microorganisms; 12 Mar. 2021): 9200 mL⁻¹ | Germ count/ml process water (microorganisms; 14 Jan. 2021): 3120 mL⁻¹ | Germ count/ml process water (microorganisms; 15 Apr. 2021): 700 mL⁻¹ | Germ count/ml process water (microorganisms; 15 Mar. 2021): 100 mL⁻¹ | Germ count/ml process water (microorganisms; 17 Feb. 2021): 200 mL⁻¹ | Germ count/ml process water (microorganisms; 18 Feb. 2021): 1120 mL⁻¹ | Germ count/ml process water (microorganisms; 18 Jan. 2021): 4160 mL⁻¹ | Germ count/ml process water (microorganisms; 18 Mar. 2021): 60 mL⁻¹ | Germ count/ml process water (microorganisms; 19 Apr. 2021): 140 mL⁻¹ | Germ count/ml process water (microorganisms; 21 Jan. 2021): 2100 mL⁻¹ | Germ count/ml process water (microorganisms; 22 Feb. 2021): 1740 mL⁻¹ | Germ count/ml process water (microorganisms; 22 Mar. 2021): 8000 mL⁻¹ | Germ count/ml process water (microorganisms; 23 Apr. 2021): 2020 mL⁻¹ | Germ count/ml process water (microorganisms; 25 Jan. 2021): 4800 mL⁻¹ | Germ count/ml process water (microorganisms; 25 Mar. 2021): 10000 mL⁻¹ | Germ count/ml process water (microorganisms; 26 Apr. 2021): 4500 mL⁻¹ | Germ count/ml process water (microorganisms; 26 Feb. 2021): 2340 mL⁻¹ | Germ count/ml process water (microorganisms; 28 Jan. 2021): 500 mL⁻¹ | Germ count/ml process water (microorganisms; 29 Apr. 2021): 3700 mL⁻¹ | Germ count/ml process water (microorganisms; 29 Mar. 2021): 10000 mL⁻¹ | germ count compared with conventional biocide (in words) (microorganisms; redox potential kept at 400 to 800 mV, 4 months): lower germ count | Redox potential in process water ([1]; 1 Mar. 2021): 720 mV | Redox potential in process water ([1]; 2 Feb. 2021): 710 mV | Redox potential in process water ([1]; 4 Feb. 2021): 550 mV | Redox potential in process water ([1]; 4 Jan. 2021): 810 mV | Redox potential in process water ([1]; 5 Apr. 2021): 770 mV | Redox potential in process water ([1]; 7 Jan. 2021): 740 mV | Redox potential in process water ([1]; 8 Apr. 2021): 640 mV | Redox potential in process water ([1]; 8 Feb. 2021): 800 mV | Redox potential in process water ([1]; 11 Feb. 2021): 750 mV | Redox potential in process water ([1]; 11 Jan. 2021): 710 mV | Redox potential in process water ([1]; 12 Apr. 2021): 450 mV | Redox potential in process water ([1]; 12 Mar. 2021): 580 mV | Redox potential in process water ([1]; 14 Jan. 2021): 700 mV | Redox potential in process water ([1]; 15 Apr. 2021): 800 mV | Redox potential in process water ([1]; 15 Mar. 2021): 760 mV | Redox potential in process water ([1]; 17 Feb. 2021): 780 mV | Redox potential in process water ([1]; 18 Feb. 2021): 740 mV | Redox potential in process water ([1]; 18 Jan. 2021): 620 mV | Redox potential in process water ([1]; 18 Mar. 2021): 780 mV | Redox potential in process water ([1]; 19 Apr. 2021): 780 mV | Redox potential in process water ([1]; 21 Jan. 2021): 540 mV | Redox potential in process water ([1]; 22 Feb. 2021): 510 mV | Redox potential in process water ([1]; 22 Mar. 2021): 660 mV | Redox potential in process water ([1]; 23 Apr. 2021): 560 mV | Redox potential in process water ([1]; 25 Jan. 2021): 420 mV | Redox potential in process water ([1]; 25 Mar. 2021): 490 mV | Redox potential in process water ([1]; 26 Apr. 2021): 630 mV | Redox potential in process water ([1]; 26 Feb. 2021): 640 mV | Redox potential in process water ([1]; 28 Jan. 2021): 790 mV | Redox potential in process water ([1]; 29 Apr. 2021): 680 mV | Redox potential in process water ([1]; 29 Mar. 2021): 430 mV

O=[N+]([O-])C(Br)(CO)CO [bronopol, reference compound]
Germ count/ml process water (microorganisms; 1 Mar. 2021): >10000 mL⁻¹ | Germ count/ml process water (microorganisms; 2 Feb. 2021): 81600 mL⁻¹ | Germ count/ml process water (microorganisms; 4 Feb. 2021): >10000 mL⁻¹ | Germ count/ml process water (microorganisms; 4 Jan. 2021): 3600 mL⁻¹ | Germ count/ml process water (microorganisms; 5 Apr. 2021): >10000 mL⁻¹ | Germ count/ml process water (microorganisms; 7 Jan. 2021): 4200 mL⁻¹ | Germ count/ml process water (microorganisms; 8 Apr. 2021): >10000 mL⁻¹ | Germ count/ml process water (microorganisms; 8 Feb. 2021): >10000 mL⁻¹ | Germ count/ml process water (microorganisms; 11 Feb. 2021): >10000 mL⁻¹ | Germ count/ml process water (microorganisms; 11 Jan. 2021): 3400 mL⁻¹ | Germ count/ml process water (microorganisms; 12 Apr. 2021): >10000 mL⁻¹ | Germ count/ml process water (microorganisms; 12 Mar. 2021): >10000 mL⁻¹ | Germ count/ml process water (microorganisms; 14 Jan. 2021): >10000 mL⁻¹ | Germ count/ml process water (microorganisms; 15 Apr. 2021): >10000 mL⁻¹ | Germ count/ml process water (microorganisms; 15 Mar. 2021): >10000 mL⁻¹ | Germ count/ml process water (microorganisms; 17 Feb. 2021): 76000 mL⁻¹ | Germ count/ml process water (microorganisms; 18 Feb. 2021): >10000 mL⁻¹ | Germ count/ml process water (microorganisms; 18 Jan. 2021): >10000 mL⁻¹ | Germ count/ml process water (microorganisms; 18 Mar. 2021): >10000 mL⁻¹ | Germ count/ml process water (microorganisms; 19 Apr. 2021): >10000 mL⁻¹ | Germ count/ml process water (microorganisms; 21 Jan. 2021): 60200 mL⁻¹ | Germ count/ml process water (microorganisms; 22 Feb. 2021): >10000 mL⁻¹ | Germ count/ml process water (microorganisms; 22 Mar. 2021): >10000 mL⁻¹ | Germ count/ml process water (microorganisms; 23 Apr. 2021): >10000 mL⁻¹ | Germ count/ml process water (microorganisms; 25 Jan. 2021): >10000 mL⁻¹ | Germ count/ml process water (microorganisms; 25 Mar. 2021): >10000 mL⁻¹ | Germ count/ml process water (microorganisms; 26 Apr. 2021): >10000 mL⁻¹ | Germ count/ml process water (microorganisms; 26 Feb. 2021): 51000 mL⁻¹ | Germ count/ml process water (microorganisms; 28 Jan. 2021): 54400 mL⁻¹ | Germ count/ml process water (microorganisms; 29 Apr. 2021): >10000 mL⁻¹ | Germ count/ml process water (microorganisms; 29 Mar. 2021): >10000 mL⁻¹ | redox potential of the process water ([1]; 5 measurements within the examination period): more than 1000 mV
